Assay results: US7902252B2, “Inhibitors of D-amino acid oxidase” (Sepracor, Inc., priority 2007, dated 2011)

Biological target: Human DAAO (Homo sapiens, UniProt P14920)
Test: D-Amino Acid Oxidase enzyme assay (D-serine, horseradish peroxidase/Amplex Red coupled fluorescence)
Assay type: biochemical
Conditions: D-serine 5 mM, pH 7.4
Method: DAAO enzyme activity was measured using the substrate D-serine at its Michaelis-Menton Km of 5 mM. The rate of oxidation is measured as a rate of production of hydrogen peroxide, which was detected using the enzyme horseradish peroxidase (Sigma cat. No. P-8375). This coupled reaction uses the enzyme substrate Amplex Red (Molecular Probes), which is converted to the fluorescent reaction product, resorufin (excitation 530-560 nm; emission ˜590 nm). Although DAAO has a higher pH optimum, all reagents were prepared in 50 mM sodium phosphate buffer at pH 7.4 and inhibition curves were generated at this pH.
The final concentrations of components in 200 μl total volume per well (black clear-bottom 96-well plate, Costar) were:
(a) Horseradish peroxidase: 4 Units per mL
(d) Amplex Red reagent: 50 uM
The reactions were initiated by addition of DAAO enzyme and the fluorescence was monitored. H2O2 was added at 16 uM final concentration to a control well on each plate to test for compound interference with a coupled enzyme. Inhibition curves were generated in the presence of varying concentrations of the inhibitor and IC50 values were calculated for each inhibitor.

Chain of Human DAAO (P14920 whole entry): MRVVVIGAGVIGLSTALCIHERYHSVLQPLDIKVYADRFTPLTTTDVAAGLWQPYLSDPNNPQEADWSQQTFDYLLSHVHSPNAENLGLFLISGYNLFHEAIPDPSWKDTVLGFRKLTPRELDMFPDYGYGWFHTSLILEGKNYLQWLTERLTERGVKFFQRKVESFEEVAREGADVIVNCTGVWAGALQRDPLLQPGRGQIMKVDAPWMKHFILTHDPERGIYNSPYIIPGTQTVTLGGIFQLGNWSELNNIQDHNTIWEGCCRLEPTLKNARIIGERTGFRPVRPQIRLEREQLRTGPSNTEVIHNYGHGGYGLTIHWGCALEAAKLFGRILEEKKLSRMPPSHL

| SMILES | IC50 [µM] |
| --- | --- |
| CC(C)(C)c1c(C(=O)O)[nH]c2c1C(=O)CC2 [Compound 3, 3-tert-butyl-4-oxo-1,4,5,6-tetrahydrocyclopenta[b]pyrrole-2-carboxylic acid] | > 100 |
| COC1c2cc(C(=O)O)[nH]c2CC1(F)F (centres unmarked) [Compound 148, 5,5-difluoro-4-methoxy-1,4,5,6-tetrahydrocyclopenta[b]pyrrole-2-carboxylic acid] | ≤ 100 |
| COc1cccc(CC2CCc3cc(C(=O)O)[nH]c32)c1 (single isomer, unassigned) [Compound 130, 6-(3-methoxybenzyl)-1,4,5,6-tetrahydrocyclopenta[b]pyrrole-2-carboxylic acid] | ≤ 100 |
| CC1Cc2cc(C(=O)O)[nH]c2C1 (centres unmarked) [Compound 22, 5-methyl-1,4,5,6-tetrahydrocyclopenta[b]pyrrole-2-carboxylic acid] | ≤ 1 |
| O=C(O)c1cc2c([nH]1)CCC2Cc1ccc(Br)cc1 (single isomer, unassigned) [Compound 61, 4-(4-bromobenzyl)-1,4,5,6-tetrahydrocyclopenta[b]pyrrole-2-carboxylic acid] | ≤ 100 |
| O=C(O)c1cc2c([nH]1)C(=O)CC2 [Compound 24, 6-oxo-1,4,5,6-tetrahydro-cyclopenta[b]pyrrole-2-carboxylic acid] | ≤ 1 |
| Cc1ccc(C2CCc3cc(C(=O)O)[nH]c32)cc1 (centres unmarked) [Compound 116, 6-p-tolyl-1,4,5,6-tetrahydrocyclopenta[b]pyrrole-2-carboxylic acid] | ≤ 1 |
| O=C(O)c1cc2c([nH]1)CCC2NCc1ccc(Cl)cc1 (centres unmarked) [Compound 108, 4-(4-chlorobenzylamino)-1,4,5,6-tetrahydrocyclopenta[b]pyrrole-2-carboxylic acid] | ≤ 100 |
| O=C(O)c1cc2c([nH]1)C(CCc1cccc3ccccc13)CC2 (centres unmarked) [Compound 132, 6-(2-(naphthalen-1-yl)ethyl)-1,4,5,6-tetrahydrocyclopenta[b]pyrrole-2-carboxylic acid] | ≤ 1 |
| O=C(O)c1cc2c([nH]1)CCC2c1ccc(Cc2ccccc2)cc1 (centres unmarked) [Compound 107, 4-(4-benzylphenyl)-1,4,5,6-tetrahydrocyclopenta[b]pyrrole-2-carboxylic acid] | ≤ 1 |
| O=C(O)c1cc2c([nH]1)C(=Cc1ccccc1)CC2 (mixture of isomers) [Compound 25, (E/Z)-6-benzylidene-1,4,5,6-tetrahydrocyclopenta[b]pyrrole-2-carboxylic acid] | ≤ 100 |
| Cc1c(C(=O)O)[nH]c2c1C(=O)CCC2 [Compound 31, 3-methyl-4-oxo-4,5,6,7-tetrahydro-1H-indole-2-carboxylic acid] | ≤ 100 |
| Cc1ccc(C2CCc3[nH]c(C(=O)O)cc32)cc1 (centres unmarked) [Compound 37, 4-p-tolyl-1,4,5,6-tetrahydrocyclopenta[b]pyrrole-2-carboxylic acid] | ≤ 1 |
| O=C(O)c1cc2c([nH]1)CCC2Cc1ccc(-c2ccccc2)cc1 (centres unmarked) [Compound 81, 4-(biphenyl-4-ylmethyl)-1,4,5,6-tetrahydrocyclopenta[b]pyrrole-2-carboxylic acid] | ≤ 1 |
| CC(C)(CC1CCc2[nH]c(C(=O)O)cc21)c1ccccc1 (centres unmarked) [Compound 35, 4-(2-methyl-2-phenylpropyl)-1,4,5,6-tetrahydrocyclopenta[b]pyrrole-2-carboxylic acid] | ≤ 100 |
| COc1cccc(CC2CCc3[nH]c(C(=O)O)cc32)c1 (single isomer, unassigned) [Compound 67, 4-(3-methoxybenzyl)-1,4,5,6-tetrahydrocyclopenta[b]pyrrole-2-carboxylic acid] | ≤ 100 |
| O=C(O)c1cc2c([nH]1)C(Cc1cccc(Cl)c1)CC2 (single isomer, unassigned) [Compound 122, 6-(3-chlorobenzyl)-1,4,5,6-tetrahydrocyclopenta[b]pyrrole-2-carboxylic acid] | ≤ 1 |
| O=C(O)c1cc2c([nH]1)C(c1ccc(-c3ccccc3)cc1)CC2 (single isomer, unassigned) [Compound 120, 6-(biphenyl-4-yl)-1,4,5,6-tetrahydrocyclopenta[b]pyrrole-2-carboxylic acid] | > 100 |
| O=C(O)c1cc2c([nH]1)C(c1ccc(Cl)cc1)CC2 (centres unmarked) [Compound 113, 6-(4-chlorophenyl)-1,4,5,6-tetrahydrocyclopenta[b]pyrrole-2-carboxylic acid] | ≤ 1 |
| O=C(O)c1cc2c([nH]1)CCCC2Cc1ccccc1 (centres unmarked) [Compound 32, 4-benzyl-4,5,6,7-tetrahydro-1H-indole-2-carboxylic acid] | ≤ 100 |
| Cc1cc(C)cc(CC2CCc3[nH]c(C(=O)O)cc32)c1 (centres unmarked) [Compound 72, 4-(3,5-dimethylbenzyl)-1,4,5,6-tetrahydrocyclopenta[b]pyrrole-2-carboxylic acid] | ≤ 100 |
| O=C(O)c1cc2c([nH]1)CCC2CCc1ccccc1 (single isomer, unassigned) [Compound 20, 4-phenethyl-1,4,5,6-tetrahydrocyclopenta[b]pyrrole-2-carboxylic acid] | ≤ 100 |
| O=C(O)c1cc2c([nH]1)CC/C2=C\c1ccc(F)cc1 [Compound 13, (E)-4-(4-fluorobenzylidene)-1,4,5,6-tetrahydrocyclopenta[b]pyrrole-2-carboxylic acid] | ≤ 100 |
| O=C(O)c1cc2c([nH]1)C(c1cccc(F)c1)CC2 (centres unmarked) [Compound 111, 6-(3-fluorophenyl)-1,4,5,6-tetrahydrocyclopenta[b]pyrrole-2-carboxylic acid] | ≤ 1 |

The remaining lines, values ahead:

| IC50 [µM] | SMILES |
| --- | --- |
| ≤ 1 | O=C(O)c1cc2c([nH]1)C(Cc1ccc(-c3ccccc3)cc1)CC2 (centres unmarked) [Compound 133, 6-(biphenyl-4-ylmethyl)-1,4,5,6-tetrahydrocyclopenta[b]pyrrole-2-carboxylic acid] |
| ≤ 1 | O=C(O)c1cc2c([nH]1)C(CCCc1ccccc1)CC2 (single isomer, unassigned) [Compound 136, 6-(3-phenylpropyl)-1,4,5,6-tetrahydrocyclopenta[b]pyrrole-2-carboxylic acid] |
| ≤ 0.1 | O=C(O)c1cc2c([nH]1)CCC2Cc1ccc(F)cc1F (racemic) [Compound 45, 4-(2,4-difluorobenzyl)-1,4,5,6-tetrahydrocyclopenta[b]pyrrole-2-carboxylic acid] |
| ≤ 1 | CC1CCc2[nH]c(C(=O)O)cc21 (racemic) [Compound 4, 4-methyl-1,4,5,6-tetrahydrocyclopenta[b]pyrrole-2-carboxylic acid] |
| ≤ 1 | O=C(O)c1cc2c([nH]1)CCC2CCc1ccccc1 (racemic) [Compound 18, 4-phenethyl-1,4,5,6-tetrahydrocyclopenta[b]pyrrole-2-carboxylic acid] |
| ≤ 1 | O=C(O)c1cc2c([nH]1)CCC2Cc1cccc(-c2ccc(C(F)(F)F)cc2)c1 (centres unmarked) [Compound 84, 4-((4′-(trifluoromethyl)biphenyl-3-yl)methyl)-1,4,5,6-tetrahydrocyclopenta[b]pyrrole-2-carboxylic acid] |
| ≤ 0.1 | O=C(O)c1cc2c([nH]1)CCC2Cc1cccc(C2CC2)c1 (centres unmarked) [Compound 73, 4-(3-cyclopropylbenzyl)-1,4,5,6-tetrahydrocyclopenta[b]pyrrole-2-carboxylic acid] |
| ≤ 0.1 | O=C(O)c1cc2c([nH]1)C(Cc1cccc(Br)c1)CC2 (single isomer, unassigned) [Compound 127, 6-(3-bromobenzyl)-1,4,5,6-tetrahydrocyclopenta[b]pyrrole-2-carboxylic acid] |
| ≤ 1 | O=C(O)c1cc2c([nH]1)CCC2Cc1cccc(-c2ccc(CO)cc2)c1 (centres unmarked) [Compound 86, 4-((4′-(hydroxymethyl)biphenyl-3-yl)methyl)-1,4,5,6-tetrahydrocyclopenta[b]pyrrole-2-carboxylic acid] |
| ≤ 1 | Cc1ccc(CC2CCc3[nH]c(C(=O)O)cc32)cc1C (centres unmarked) [Compound 71, 4-(3,4-dimethylbenzyl)-1,4,5,6-tetrahydrocyclopenta[b]pyrrole-2-carboxylic acid] |
| ≤ 0.1 | O=C(O)c1cc2c([nH]1)C(Cc1ccccc1)CC2 (centres unmarked) [Compound 26, 6-benzyl-1,4,5,6-tetrahydrocyclopenta[b]pyrrole-2-carboxylic acid] |
| ≤ 0.1 | O=C(O)c1cc2c([nH]1)CCC2Cc1ccc(F)cc1 (single isomer, unassigned) [Compound 40, 4-(4-fluorobenzyl)-1,4,5,6-tetrahydrocyclopenta[b]pyrrole-2-carboxylic acid] |
| ≤ 0.1 | O=C(O)c1cc2c([nH]1)CCC2Cc1ccc(F)c(Cl)c1 (racemic) [Compound 48, 4-(3-chloro-4-fluorobenzyl)-1,4,5,6-tetrahydrocyclopenta[b]pyrrole-2-carboxylic acid] |
| ≤ 0.1 | O=C(O)c1cc2c([nH]1)CCC2Cc1ccc(Br)cc1 (racemic) [Compound 60, 4-(4-bromobenzyl)-1,4,5,6-tetrahydrocyclopenta[b]pyrrole-2-carboxylic acid] |
| ≤ 0.1 | O=C(O)c1cc2c([nH]1)CCC2Cc1cccc(Cl)c1 (centres unmarked) [Compound 56, 4-(3-chlorobenzyl)-1,4,5,6-tetrahydrocyclopenta[b]pyrrole-2-carboxylic acid] |
| ≤ 0.1 | O=C(O)c1cc2c([nH]1)C(Cc1cccc(Cl)c1)CC2 (racemic) [Compound 121, 6-(3-chlorobenzyl)-1,4,5,6-tetrahydrocyclopenta[b]pyrrole-2-carboxylic acid] |
| ≤ 0.1 | O=C(O)c1cc2c([nH]1)C[C@@H]1[C@H](CCc3ccccc3)[C@H]21 (racemic) [Compound 143, ±(1S,1aS,5aR)-1-phenethyl-1a,4,5,5a-tetrahydro-1H-4-aza-cyclopropa[α]pentalene-3-carboxylic acid] |
